Broadly, the inhibition is the share of the control response that was lost under treatment.

Values after ≈ are worked out from the molar mass of the structure shown. Where two headings read alike, the source gives them in different places.

Consider three molecules from patent publication US4303785A, “Antitumor anthracycline antibiotics” (priority 1978, dated 1981).

The test system of data set [1] is L1210 cells. Briefly: animal or person. Type of data set: in vivo, CDF1 mice. The following applies: once daily for 10 days; for response vs control in vivo at 0.15 mg/kg: 0.15 mg/kg/day i.p.; for response vs control in vivo at 0.31 mg/kg: 0.31 mg/kg/day i.p.; for response vs control in vivo at 0.625 mg/kg: 0.625 mg/kg/day i.p.; for response vs control in vivo at 1.25 mg/kg: 1.25 mg/kg/day i.p.; for response vs control in vivo at 2.5 mg/kg: 2.5 mg/kg/day i.p. As for the experimental part:
D. Representative compounds of general formula I" were tested against experimental animal tumors as follows: […]
CDF1 mice were administered intraperitoneally (i.p.) with 1×10^5 cells/mouse of L1210 cells. After 24 hours had elapsed since inoculation, the mice were administered the test compounds intraperitoneally once daily for 10 consecutive days and observed for a 45 day period.
The antitumor activity was shown by the prolongation rate of survival day (T/C, %) to the survival day of control mice injected with physiological saline.

For data set [2] the following is noted: cited from earlier work.
For data set [3], the system named is L1210 cells. Nature of the data set: Inhibition of 14C-uridine and 14C-thymidine incorporation (nucleic acid synthesis) in L1210 cells in culture (Table 5). Type of data set: cell-based. The note with it: for IC50: Mus musculus, L1210, 1 h. The method, then:
The effect of the tetrahydropyranyl ether derivatives of formula I' on nucleic acid synthesis was examined as follows: […]
1×10^5 cells/ml. of L1210 cells were suspended in RPMI medium containing 10% calf serum, pre-cultivated at 37° C. for 1 to 2 hours in a CO2 incubator and then the test compounds were added to the medium at various concentrations. After 15 min. of incubation, ^14 C-uridine (0.05 μCi/ml.) or ^14 C-thymidine (0.05 μCi/ml.) was added and incubated at 37° C. for 60 min. Trichloroacetic acid (TCA) (10%) was added to the incubation medium to stop the reaction and precipitate the acid-insoluble materials, and then the precipitate was washed three times with 5 to 10% […]. The radioactivity was measured and expressed as 50% inhibition concentration of incorporation.

Data set [4] relates to various experimental tumors. The following applies: cited from earlier work.
A further data set concerns L1210 leukemia cells. Briefly: Growth inhibitory effect on L1210 cells in culture (Table 4). The format is cell-based. The note with it: for inhibition at 0.1 µg/mL / inhibition at 0.5 µg/mL: Mus musculus, L1210, read-out: Inhibition Rate (growth). The method, then:
For example, L1210 cells (5×10^4 cells/ml.) were inoculated in RPMI 1640 medium (Roswell Park Memorial Institute 1640) containing 20% calf serum and cultivated at 37° C. in the presence of 0.1 and 0.5 μg./ml. of the test compounds in a CO2 incubator.

In the next data set the test system is L1210 leukemia. Nature of the data set: Antitumor activity in BDF1 mice inoculated with L1210 leukemia cells (Table 6). The following applies: once daily for 10 days. The format is in vivo. The source says:
As an example, BDF1 mice were inoculated intraperitoneally with 1×10^6 cells/mouse of L1210 leukemia cells.

In data set [5] the test system is Bacillus subtillis NRRLB-558. Nature of the data set: Minimum inhibitory concentration, broth dilution method (Table 3). The format is cell-based. The following applies: Bacillus subtillis NRRLB-558. The source says: (§1) To illustrate such activity, minimum inhibitory concentrations (as determined by the broth dilution method) of representative compounds are shown in Table 3.
(In general: In broth dilution the organism is exposed to a series of concentrations in liquid medium.)

Another data set concerns Candida albicans. Described as above. The format is cell-based.
From the text: as §1

In a further data set the test system is Bacillus megaterium APF. The description is as above. The format is cell-based.
From the text: as §1

In data set [6] the test system is Corynebacterium bovis 1810. The data set is described as above. Type of data set: cell-based.
From the text: as §1

The next data set concerns Escherichia coli NIHJ. Described as above. Type of data set: cell-based.
From the text: as §1

Data set [7] deals with Mycobacterium smegmatis ATCC 607. The data set is described as above. The format is cell-based.
From the text: as §1

Data set [8] relates to Bacillus cereus ATCC 10702. The description is as above. The format is cell-based.
From the text: as §1

In the next data set the test system is Sarcina lutea PCI 1001. The description is as above. Type of data set: cell-based.
From the text: as §1

The subject of a further data set is Staph. aureus FDA 209P. Described as above. The format is cell-based.
From the text: as §1

The subject of data set [9] is Micrococcus flavus FDA 16. Described as above. Type of data set: cell-based. The following applies: Micrococcus flavus FDA 16.
From the text: as §1

A further data set concerns Staph. aureus Smith. Described as above. The format is cell-based.
From the text: as §1

For data set [10], the system named is Pseudomonas aeruginosa A3. The description is as above. The format is cell-based. The note with it: Pseudomonas aeruginosa A3.
From the text: as §1

The subject of data set [11] is NADPH-cytochrome P450 reductase. Briefly: Stability on rat hepatic NADPH-cytochrome P450 reductase: 7-deoxyaglycone formed (Table 7). The note with it: 25° C., 25 min., nitrogen; substrate 0.1 mM, NADPH 0.2 mM, enzyme 4.6 μg./ml, pH 8.0. Type of data set: in vitro ADME. As for the experimental part: C. The marked antitumor effects seen from A and B above were confirmed by the stability of the test compounds on the inactivation by hepatic NADPH-cytochrome P450 reductase. Specifically, NADPH-cytochrome P450 reductase purified from rat liver homogenate was incubated with the tetrahydropyranyl ether derivatives of formula I' at 25° C. for 25 min. in nitrogen gas phase, and the incubation product formed, 7-deoxyaglycone, was determined as shown in Table 7.

The mark [12] stands for this setting: Mus musculus, L1210, ip, 1080 h, read-out: Antitumor Activity (T/C, prolongation rate of survival day).
Setting [13] is: read-out: 50% Inhibition Concentration of 14C-Thymidine Incorporation.
Setting [14] is: read-out: 50% Inhibition Concentration of 14C-Uridine Incorporation.

As for `COc1cccc2c1C(=O)c1c(O)c3c(c(O)c1C2=O)C[C@@](O)(C(C)=O)C[C@@H]3O[C@H]1C[C@H](N)[C@H](O)[C@H](C)O1` [Daunomycin, daunomycin, reference compound], the “Antitumor Activity (T/C, prolongation rate of survival day)” value (“Antitumor Activity” for short) with L1210 cells [1] (5 mg/kg/day i.p.) was “Tox”. Besides, in the data set with L1210 cells [1] (setting [12]), the response vs control in vivo at 0.15 mg/kg came out at 118%, the response vs control in vivo at 0.31 mg/kg turned out to be 132%, the response vs control in vivo at 0.625 mg/kg was found to be 145% and the response vs control in vivo at 1.25 mg/kg was determined as 191%. In the data set with L1210 cells [1] (setting [12]), the response vs control in vivo at 2.5 mg/kg stood at 138%. In addition, in data set [2] (in vivo), the “side effects in clinical use” value is “severe side effects such as alopecia, leukopenia and cardiotoxicity”. Moreover, the IC50 in the data set on L1210 cells [3] (setting [13]) came out at 0.7 µg/mL (≈ 1.33 µM). Besides, the IC50 in the data set with L1210 cells [3] (setting [14]) is 0.4 µg/mL (≈ 0.758 µM). For the same molecule, the antitumor spectrum entry in data set [4] is given as “broad antitumor spectrum against various experimental tumors”. In addition, in the data set with L1210 leukemia cells, the inhibition at 0.1 µg/mL came out at 68.8% and the inhibition at 0.5 µg/mL turned out to be 72.7%.

Regarding `COc1cccc2c1C(=O)c1c(O)c3c(c(O)c1C2=O)C[C@@](O)(C(=O)CO)C[C@@H]3O[C@H]1C[C@H](N)[C@H](O)[C@H](C)O1` [Adriamycin, adriamycin, reference compound], in the data set on L1210 cells [1] (setting [12]), the response vs control in vivo at 0.15 mg/kg stood at 130%, the response vs control in vivo at 0.31 mg/kg was determined as 147%, the response vs control in vivo at 0.625 mg/kg amounted to 239% and the response vs control in vivo at 1.25 mg/kg was determined as 272%. Besides, the response vs control in vivo at 2.5 mg/kg in the data set with L1210 cells [1] (setting [12]) amounted to 351%. Besides, the response vs control in vivo at 5 mg/kg with L1210 cells [1] (Mus musculus, L1210, ip, 1080 h, 5 mg/kg/day i.p., read-out: Antitumor Activity (T/C, prolongation rate of survival day)) came out at 189%. The “side effects in clinical use” value in data set [2] (clinical antitumor agents) was “severe side effects such as alopecia, leukopenia and cardiotoxicity”. In the data set on L1210 leukemia (0.15 mg./kg./day i.p.), the “Antitumor Activity” value is on record as 128%. In addition, the “Antitumor Activity” value in the data set on L1210 leukemia (0.3 mg./kg./day i.p.) was found to be 165%. The “Antitumor Activity” value with L1210 leukemia (5 mg./kg./day i.p.) is “toxic”. Besides, in the data set with L1210 cells [3] (setting [13]), the IC50 turned out to be 2.1 µg/mL (≈ 3.86 µM). Also, the IC50 with L1210 cells [3] (setting [14]) was found to be 0.5 µg/mL (≈ 0.92 µM). In data set [4], the antitumor spectrum entry is on record as “broad antitumor spectrum against various experimental tumors”. Further, in the data set on L1210 leukemia cells, the inhibition at 0.1 µg/mL is 70.7% and the inhibition at 0.5 µg/mL came to 84.2%.

Consider `COc1cccc2c1C(=O)c1c(O)c3c(c(O)c1C2=O)C[C@@](O)(C(C)=O)C[C@@H]3O[C@H]1C[C@H](N)[C@H](OC2CCCCO2)[C@H](C)O1` (single isomer, unassigned; isomer b) [4'-O-PDb, 4'-O-tetrahydropyranyl daunomycin (isomer b)], for which the “Antitumor Activity” value is on record as 90% in the data set with L1210 leukemia (0.15 mg./kg./day i.p.); 103% with L1210 leukemia (0.3 mg./kg./day i.p.); 115% in the data set with L1210 leukemia (0.6 mg./kg./day i.p.); 122% in the data set with L1210 leukemia (1.25 mg./kg./day i.p.); 256% with L1210 leukemia (2.5 mg./kg./day i.p.); greater than 320% in the data set on L1210 leukemia (5 mg./kg./day i.p.). For the same molecule, in the data set with L1210 cells [3] (thymidine, 60 min. at 37° C.), the “50% Inhibition Concentration of 14C-Thymidine Incorporation” value amounted to 0.32 µg/mL. The “50% Inhibition Concentration of 14C-Uridine Incorporation” value in the data set on L1210 cells [3] (uridine, 60 min. at 37° C.) was determined as 0.20 µg/mL. In addition, the “Minimum Inhibitory Concentration (MIC)” value in data set [5] was 1.56 µg/mL; with Candida albicans, 25 µg/mL; in the data set with Bacillus megaterium APF it was 3.12 µg/mL; in data set [6], 0.78 µg/mL; with Escherichia coli NIHJ, greater than 100 µg/mL; in [7], 6.25 µg/mL. Moreover, the “Minimum Inhibitory Concentration (MIC)” value in data set [8] is 6.25 µg/mL; in the data set on Sarcina lutea PCI 1001, 0.39 µg/mL; in the data set on Staph. aureus FDA 209P, 6.25 µg/mL; in [9], 1.56 µg/mL; in the data set on Staph. aureus Smith, 3.12 µg/mL; in data set [10] it was greater than 50 µg/mL. Also, in data set [11], the “Product (7-Deoxyaglycone)” value came to 46.6 nmoles/tube. The “Inhibition Rate (growth)” value in the data set on L1210 leukemia cells (0.1 μg./ml.) stood at 74.6%; in the data set with L1210 leukemia cells (0.5 μg./ml.), 88.8%.
